According to patent US20210346425A1, “BOTANICAL FILM-FORMING ACNE COMPOSITIONS” (priority 2018, published 2021):

Key:
[1] = Zone of inhibition test of salicylic acid and botanicals in FGZ base; type: cell-based; conditions: ingredients in FGZ base; test organism not given
Protocol: Various botanicals, salicylic acid and combinations were mixed in FGZ gel and antibacterial efficacy was evaluated.
Table 1: Antibacterial Activity of Salicylic Acid and Botanicals in FGZ Base (Zone of Inhibition Test)

S. aureus = test: Rapid kill (15 seconds) suspension test, ASTM E2783-11; type: cell-based; conditions: 15 seconds contact, ingredient in FGZ gel, log 10 reduction of 3.0 or higher counts as effective
Protocol: Table 2: Antibacterial Activity (Rapidity of Kill Test Organism S. aureus)
Rapid kill (15 seconds) test tube method described in ASTM-E2783-1198751-1 (suspension test).
In vitro rapid-kill test was carried out according to ASTM E2783-11; 10^8 CFU mL^−1 microbial cultures were prepared in a TSA media in order to determine the antimicrobial activity of acne formulations. 0.9 mL acne formulation was kept in contact with 0.1 mL microbial cultures for 15 seconds and subsequently neutralized using agent DE. PBS was used as a control.

O=C(O)c1ccccc1O [Salicylic acid 2%, Salicylic acid]
Zone of inhibition (mm) [1]: 1 mm
Log reductrion from control growth (S. aureus): 2.1

[H]/N=C(\N/C(=N/[H])NCCCCCCNC(=N)NC(=N)Nc1ccc(Cl)cc1)Nc1ccc(Cl)cc1 [chlorhexidine gluconate]
Log reductrion from control growth (S. aureus): 0.2
